# Laboratory results from patent publication US10077247B2, “Tricyclic spiro compound” (ONO PHARMACEUTICAL CO., LTD., priority 2015, dated 2018).
# pIC50: −log10 of the molar value.
# Legend:
# rat EP4 receptor = rat EP4 receptor (Rattus norvegicus (Rat), UniProt P43114); test: EP4 antagonistic activity measurement using prostanoid receptor subtype expressing cells (cAMP); format: cell-based; conditions: CHO cells expressing rat EP4 receptor; inhibition of cAMP production by PGE2 10 nM
# Method: CHO cells expressing rat EP4 receptor subtypes were prepared according to the methods of Nishigaki et al. (FEBS Letters, Vol. 364, p. 339-341, 1995), and used for experiment. Cultured subconfluent cells were detached, and suspended in an assay medium (MEM containing 1 mmol/L IBMX, 1% HSA) in a concentration of 1×10^6 cells/mL. For reaction, PGE2 was added to the cell suspension (25 μL) in a final concentration of 10 nmol/L, either alone or as a 25-μL PGE2 solution containing the test compound. After 30 minutes of reaction at room temperature, the amount of cAMP in the cells was quantified according to the method in the descriptions of the cAMP assay kit (CISBIO).
# The antagonistic effect (IC50 value) of the test compound was calculated as a value that represents an inhibition rate against a reaction with PGE2 alone at 10 nM, a concentration that produces a submaximal cAMP producing effect.
# [1] = Pharmacokinetics test (hepatic microsome stability test); conditions: human hepatic microsome 1 mg/mL, 37° C., 60 min, 1 μmol/L
# Chain of rat EP4 receptor (P43114 whole entry): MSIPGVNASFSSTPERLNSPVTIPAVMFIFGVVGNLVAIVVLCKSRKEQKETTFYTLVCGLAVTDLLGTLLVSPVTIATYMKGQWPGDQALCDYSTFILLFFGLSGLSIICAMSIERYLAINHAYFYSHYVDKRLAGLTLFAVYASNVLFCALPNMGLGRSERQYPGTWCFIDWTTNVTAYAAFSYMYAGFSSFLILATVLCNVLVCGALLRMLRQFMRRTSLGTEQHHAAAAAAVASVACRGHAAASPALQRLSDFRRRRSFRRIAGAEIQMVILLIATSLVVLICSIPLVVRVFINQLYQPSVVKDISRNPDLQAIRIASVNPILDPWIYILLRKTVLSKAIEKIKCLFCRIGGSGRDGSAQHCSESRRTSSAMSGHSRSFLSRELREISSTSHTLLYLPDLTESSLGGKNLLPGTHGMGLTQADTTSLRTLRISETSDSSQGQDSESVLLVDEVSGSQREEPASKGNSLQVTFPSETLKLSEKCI
pIC50 (rat EP4 receptor),Remaining rate (%) [1] [%],Structure (SMILES)
8.07,89,"N#Cc1ccc(CCCC(=O)O)c(NC(=O)[C@@H]2C[C@]23CCOc2ccc(N4CCCC4=O)cc23)c1 [Example 7-10, 4-[4-Cyano-2-({[(2′R,4S)-6-(2-oxo-1-pyrrolidinyl)-2,3-dihydrospiro[chromene-4,1′-cyclopropan]-2′-yl]carbonyl}amino)phenyl]butanoic acid]"
8.48,86,"COC[C@H](C)NC(=O)c1ccc2c(c1)[C@]1(CCO2)C[C@H]1C(=O)Nc1cc(C#N)ccc1CCCC(=O)O [Example 2-4, 4-[4-Cyano-2-({[(2′R,4S)-6-{[(2S)-1-methoxy-2-propanyl]carbamoyl}-2,3-dihydrospiro[chromene-4,1′-cyclopropan]-2′-yl]carbonyl}amino)phenyl]butanoic acid]"
7.77,81,"N#Cc1ccc(CCCC(=O)O)c(NC(=O)[C@@H]2C[C@]23CCOc2ccc(-c4ccccc4)cc23)c1 [Example 7-1, 4-[4-Cyano-2-({[(2′R,4S)-6-phenyl-2,3-dihydrospiro[chromene-4,1′-cyclopropan]-2′-yl]carbonyl}amino)phenyl]butanoic acid]"
8.80,77,"COCCNC(=O)c1cc2c(cc1F)OCC[C@]21C[C@H]1C(=O)Nc1cc(C#N)ccc1CCCC(=O)O [Example 20-2, 4-{4-Cyano-2-[({(2′R,4S)-7-fluoro-6-[(2-methoxyethyl)carbamoyl]-2,3-dihydrospiro[chromene-4,1′-cyclopropan]-2′-yl}carbonyl)amino]phenyl}butanoic acid]"
8.14,100,"N#Cc1ccc(CCCC(=O)O)c(NC(=O)[C@@H]2C[C@]23CCOc2ccc(C(=O)NC4CCOCC4)cc23)c1 [Example 2-40, 4-[4-Cyano-2-({[(2′R,4S)-6-(tetrahydro-2H-pyran-4-ylcarbamoyl)-2,3-dihydrospiro[chromene-4,1′-cyclopropan]-2′-yl]carbonyl}amino)phenyl]butanoic acid]"
8.27,69,"COCCNC(=O)c1ccc2c(c1)[C@@]1(C[C@H]1C(=O)Nc1cc(C#N)ccc1CCCC(=O)O)CC2(C)C [Example 38-1, 4-[4-Cyano-2-({[(1S,2R)-6′-[(2-methoxyethyl)carbamoyl]-3′,3′-dimethyl-2′,3′-dihydrospiro[cyclopropane-1, 1′-inden]-2-yl]carbonyl}amino)phenyl]butanoic acid]"
8.24,80,"Cc1ccc(-c2ccc3c(c2)[C@]2(CCO3)C[C@H]2C(=O)Nc2cc(C#N)ccc2CCCC(=O)O)cn1 [Example 7-16, 4-[4-Cyano-2-({[(2′R,4S)-6-(6-methyl-3-pyridinyl)-2,3-dihydrospiro[chromene-4,1′-cyclopropan]-2′-yl]carbonyl}amino)phenyl]butanoic acid]"
8.55,80,"Cc1noc(-c2ccc3c(c2)[C@]2(CCO3)C[C@H]2C(=O)Nc2cc(C#N)ccc2CCCC(=O)O)n1 [Example 5, 4-[4-Cyano-2-({[(2′R,4S)-6-(3-methyl-1,2,4-oxadiazol-5-yl)-2,3-dihydrospiro[chromene-4,1′-cyclopropan]-2′-yl]carbonyl}amino)phenyl]butanoic acid]"
8.60,80,"N#Cc1ccc(CCCC(=O)O)c(NC(=O)[C@@H]2C[C@]23CCOc2ccc(C(=O)Nc4cccnn4)cc23)c1 [Example 2-29, 4-[4-Cyano-2-({[(2′R,4S)-6-(3-pyridazinylcarbamoyl)-2,3-dihydrospiro[chromene-4,1′-cyclopropan]-2′-yl]carbonyl}amino)phenyl]butanoic acid]"
8.08,100,"CCOCCNC(=O)c1ccc2c(c1)[C@]1(CCO2)C[C@H]1C(=O)Nc1cc(C#N)ccc1CCCC(=O)O [Example 2-45, 4-{4-Cyano-2-[({(2′R,4S)-6-[(2-ethoxyethyl)carbamoyl]-2,3-dihydrospiro[chromene-4,1′-cycopropan]-2′-yl}carbonyl)amino]phenyl}butanoic acid]"
8.33,100,"N#Cc1ccc(CCCC(=O)O)c(NC(=O)[C@@H]2C[C@]23CCOc2ccc(C(=O)NC4CCC4)cc23)c1 [Example 2-38, 4-[4-Cyano-2-({[(2′R,4S)-6-(cyclobutylcarbamoyl)-2,3-dihydrospiro[chromene-4,1′-cyclopropan]-2′-yl]carbonyl}amino)phenyl]butanoic acid]"
8.14,77,"CNC(=O)c1ccc2c(c1)[C@]1(CO2)C[C@H]1C(=O)Nc1cc(C#N)ccc1CCCC(=O)O [Example 37-1, 4-[4-Cyano-2-({[(2′R,3S)-5-(methylcarbamoyl)spiro[1-benzofuran-3,1′-cyclopropan]-2′-yl]carbonyl}amino)phenyl]butanoic acid]"
8.47,90,"CC(C)(C)n1cc(NC(=O)c2ccc3c(c2)[C@]2(CCO3)C[C@H]2C(=O)Nc2cc(C#N)ccc2CCCC(=O)O)cn1 [Example 2-39, 4-[4-Cyano-2-({[(2′R,4S)-6-{[1-(2-methyl-2-propanyl)-1H-pyrazol-4-yl]carbamoyl}-2,3-dihydrospiro[chromene-4,1′-cyclopropan]-2′-yl]carbonyl}amino)phenyl]butanoic acid]"
8.42,72,"N#Cc1ccc(CCCC(=O)O)c(NC(=O)[C@@H]2C[C@]23CCOc2ccc(-c4cccnc4)cc23)c1 [Example 7-3, 4-[4-Cyano-2-({[(2′R,4S)-6-(3-pyridinyl)-2,3-dihydrospiro[chromene-4,1′-cyclopropan]-2′-yl]carbonyl}amino)phenyl]butanoic acid]"
8.19,91,"CNC(=O)c1ccc2c(c1)OCC[C@]21C[C@H]1C(=O)Nc1cc(C#N)ccc1CCCC(=O)O [Example 28-1, 4-[4-Cyano-2-({[(2′R,4S)-7-(methylcarbamoyl)-2,3-dihydrospiro[chromene-4,1′-cyclopropan]-2′-yl]carbonyl}amino)phenyl]butanoic acid]"
8.46,73,"Cn1cc(-c2ccc3c(c2)[C@]2(CCO3)C[C@H]2C(=O)Nc2cc(C#N)ccc2CCCC(=O)O)nn1 [Example 10-4, 4-[4-Cyano-2-({[(2′R,4S)-6-(1-methyl-1H-1,2,3-triazol-4-yl)-2,3-dihydrospiro[chromene-4,1′-cyclopropan]-2′-yl]carbonyl}amino)phenyl]butanoic acid]"
8.57,100,"Cc1nnc(-c2ccc3c(c2)[C@]2(CCO3)C[C@H]2C(=O)Nc2cc(C#N)ccc2CCCC(=O)O)o1 [Example 3, 4-[4-Cyano-2-({[(2′R,4S)-6-(5-methyl-1,3,4-oxadiazol-2-yl)-2,3-dihydrospiro[chromene-4,1′-cyclopropan]-2′-yl]carbonyl}amino)phenyl]butanoic acid]"
8.08,100,"COCCNC(=O)c1cc2c(cc1OC)OCC[C@]21C[C@H]1C(=O)Nc1cc(C#N)ccc1CCCC(=O)O [Example 33-2, 4-{4-Cyano-2-[({(2′R,4S)-7-methoxy-6-[(2-methoxyethyl)carbamoyl]-2,3-dihydrospiro[chromene-4,1′-cyclopropan]-2′-yl}carbonyl)amino]phenyl}butanoic acid]"
8.35,100,"N#Cc1ccc(CCCC(=O)O)c(NC(=O)[C@@H]2C[C@]23CCOc2ccc(-c4cnc5[nH]ccc5c4)cc23)c1 [Example 7-19, 4-[4-Cyano-2-({[(2′R,4S)-6-(1H-pyrrolo[2,3-b]pyridin-5-yl)-2,3-dihydrospiro[chromene-4,1′-cyclopropan]-2′-yl]carbonyl}amino)phenyl]butanoic acid]"
8.16,100,"COCCNC(=O)c1ccc2c(c1)OCC[C@]21C[C@H]1C(=O)Nc1cc(C#N)ccc1CCCC(=O)O [Example 28-2, 4-{4-Cyano-2-[({(2′R,4S)-7-[(2-methoxyethyl)carbamoyl]-2,3-dihydrospiro[chromene-4,1′-cyclopropan]-2′-yl}carbonyl)amino]phenyl}butanoic acid]"
8.89,–,Cn1cc(NC(=O)c2ccc3c(c2)[C@]2(CCO3)C[C@H]2C(=O)Nc2cc(C#N)ccc2CCCC(=O)O)cn1 [Example 2-5]
8.00,76,"CNc1ccc(-c2ccc3c(c2)[C@]2(CCO3)C[C@H]2C(=O)Nc2cc(C#N)ccc2CCCC(=O)O)cn1 [Example 7-21, 4-{4-Cyano-2-[({(2′R,4S)-6-[6-(methylamino)-3-pyridinyl]-2,3-dihydrospiro[chromene-4,1′-cyclopropan]-2′-yl}carbonyl)amino]phenyl}butanoic acid]"
8.35,96,"N#Cc1ccc(CCCC(=O)O)c(NC(=O)[C@@H]2C[C@]23CCOc2ccc(C(=O)NC4CCCC4)cc23)c1 [Example 2-14, 4-[4 Cyano 2-({[(2′R,4S)-6-(cyclopentylcarbamoyl)-2,3-dihydrospiro[chromene-4,1′-cyclopropan]-2′-yl]carbonyl}amino)phenyl]butanoic acid]"
8.47,97,"N#Cc1ccc(CCCC(=O)O)c(NC(=O)[C@@H]2C[C@]23CCOc2ccc(C(=O)Nc4ccon4)cc23)c1 [Example 2-37, 4-[4-Cyano-2-({[(2′R,4S)-6-(1,2-oxazol-3-ylcarbamoyl)-2,3-dihydrospiro[chromene-4,1′-cyclopropan]-2′-yl]carbonyl}amino)phenyl]butanoic acid]"
